Values of other authors as cited in patent publication US12194002B2, “Compositions and methods to improve the therapeutic benefit of suboptimally administered chemical compounds including substituted hexitols such as dibromodulcitol” (priority 2011, dated 2025).

Key:
[1] = biological target: JAK2V617F mutant of the JAK2 tyrosine kinase (Homo sapiens, UniProt O60674, V617F)
Sequence of JAK2V617F mutant of the JAK2 tyrosine kinase (O60674 whole entry V617F): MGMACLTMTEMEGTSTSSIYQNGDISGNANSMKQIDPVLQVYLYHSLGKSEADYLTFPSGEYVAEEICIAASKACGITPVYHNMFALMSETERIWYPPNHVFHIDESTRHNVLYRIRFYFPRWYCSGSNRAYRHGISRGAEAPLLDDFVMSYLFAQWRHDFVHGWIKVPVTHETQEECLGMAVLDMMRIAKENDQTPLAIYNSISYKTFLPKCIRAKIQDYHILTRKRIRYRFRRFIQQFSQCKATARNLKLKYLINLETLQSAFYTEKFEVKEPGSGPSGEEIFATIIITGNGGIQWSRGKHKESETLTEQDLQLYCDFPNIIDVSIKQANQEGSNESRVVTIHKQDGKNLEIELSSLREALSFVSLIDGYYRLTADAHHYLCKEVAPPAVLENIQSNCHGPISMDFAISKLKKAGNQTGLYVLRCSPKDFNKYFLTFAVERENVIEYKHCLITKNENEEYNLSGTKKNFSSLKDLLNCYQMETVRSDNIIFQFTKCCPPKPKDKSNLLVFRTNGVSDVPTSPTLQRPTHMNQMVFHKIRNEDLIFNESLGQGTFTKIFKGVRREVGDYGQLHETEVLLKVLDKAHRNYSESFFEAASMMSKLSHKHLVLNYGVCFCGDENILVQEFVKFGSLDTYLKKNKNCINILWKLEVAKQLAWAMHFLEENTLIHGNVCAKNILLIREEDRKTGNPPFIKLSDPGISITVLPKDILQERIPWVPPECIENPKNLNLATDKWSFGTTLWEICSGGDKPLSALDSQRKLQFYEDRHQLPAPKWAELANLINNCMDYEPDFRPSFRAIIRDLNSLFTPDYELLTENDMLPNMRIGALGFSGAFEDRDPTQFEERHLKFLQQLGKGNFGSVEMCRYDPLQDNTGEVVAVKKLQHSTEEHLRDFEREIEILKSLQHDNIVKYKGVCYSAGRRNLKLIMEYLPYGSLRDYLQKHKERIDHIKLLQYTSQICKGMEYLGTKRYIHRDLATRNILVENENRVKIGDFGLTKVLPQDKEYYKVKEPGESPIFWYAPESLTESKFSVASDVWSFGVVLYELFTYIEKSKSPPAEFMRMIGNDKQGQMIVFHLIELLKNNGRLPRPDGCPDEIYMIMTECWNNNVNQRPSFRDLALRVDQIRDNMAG

Row | Inhibition of JAK2V617F mutant [1] | Absorption by the oral route | Compound
1 | potent inhibitor | – | C#Cc1cccc(Nc2ncnc3cc(OCCOC)c(OCCOC)cc23)c1 [Tarceva, N-(3-ethynylphenyl)-6,7-bis(2-methoxyethoxy)quinazolin-4-amine]
2 | – | rapid and fairly complete | O[C@H]([C@H](O)[C@@H](O)CBr)[C@H](O)CBr [dibromodulcitol]
